Measurements taken from PubChem BioAssay (NCI).
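These data come from cells grown in 96-well plates and exposed to compound for 48 hours at five concentrations. Definition used: TGI = concentration required for complete inhibition of growth.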

Experiments:
Assay in all cases: NCI-60 cell line screen, 48 h
786-0 renal = system: 786-0 renal
A498 renal = system: A498 renal
A549 NSCLC = system: A549 NSCLC
ACHN renal = system: ACHN renal
BT-549 breast = system: BT-549 breast
CAKI-1 renal = system: CAKI-1 renal
CCRF-CEM leukemia = system: CCRF-CEM leukemia
COLO 205 colon = system: COLO 205 colon
EKVX NSCLC = system: EKVX NSCLC
HCT-116 colon = system: HCT-116 colon
HCT-15 colon = system: HCT-15 colon
HL-60(TB) leukemia = system: HL-60(TB) leukemia
HOP-62 NSCLC = system: HOP-62 NSCLC
HOP-92 NSCLC = system: HOP-92 NSCLC
HS 578T breast = system: HS 578T breast
HT29 colon = system: HT29 colon
IGROV1 ovarian = system: IGROV1 ovarian
K-562 leukemia = system: K-562 leukemia
KM12 colon = system: KM12 colon
LOX IMVI melanoma = system: LOX IMVI melanoma
M14 melanoma = system: M14 melanoma
MALME-3M melanoma = system: MALME-3M melanoma
MCF7 breast = system: MCF7 breast
MDA-MB-231 breast = system: MDA-MB-231 breast
MDA-MB-435 = system: MDA-MB-435
MDA-N = system: MDA-N
MOLT-4 leukemia = system: MOLT-4 leukemia
NCI-H226 lung = system: NCI-H226 lung
NCI-H23 lung = system: NCI-H23 lung
NCI-H460 lung = system: NCI-H460 lung
NCI-H522 lung = system: NCI-H522 lung
NCI/ADR-RES ovarian = system: NCI/ADR-RES ovarian
OVCAR-3 ovarian = system: OVCAR-3 ovarian
OVCAR-4 ovarian = system: OVCAR-4 ovarian
OVCAR-5 ovarian = system: OVCAR-5 ovarian
OVCAR-8 ovarian = system: OVCAR-8 ovarian
PC-3 prostate = system: PC-3 prostate
RPMI-8226 leukemia = system: RPMI-8226 leukemia
RXF 393 renal = system: RXF 393 renal
SF-268 CNS = system: SF-268 CNS
SF-295 CNS = system: SF-295 CNS
SF-539 CNS = system: SF-539 CNS
SK-MEL-2 melanoma = system: SK-MEL-2 melanoma
SK-MEL-28 melanoma = system: SK-MEL-28 melanoma
SK-MEL-5 melanoma = system: SK-MEL-5 melanoma
SK-OV-3 ovarian = system: SK-OV-3 ovarian
SNB-19 CNS = system: SNB-19 CNS
SNB-75 CNS = system: SNB-75 CNS
SR leukemia = system: SR leukemia
SW-620 colon = system: SW-620 colon
T-47D breast = system: T-47D breast
TK-10 renal = system: TK-10 renal
U251 CNS = system: U251 CNS
UACC-257 melanoma = system: UACC-257 melanoma
UACC-62 melanoma = system: UACC-62 melanoma
UO-31 renal = system: UO-31 renal
SN12C renal = system: SN12C renal

Compound: CC1CC(c2ccccc2)Nc2nc3ccccc3n21 (stereo not given)
- TGI (786-0 renal): > 100 µM
- TGI (A498 renal): > 100 µM
- TGI (A549 NSCLC): > 100 µM
- TGI (ACHN renal): > 100 µM
- TGI (BT-549 breast): > 100 µM
- TGI (CAKI-1 renal): > 100 µM
- TGI (CCRF-CEM leukemia): > 100 µM
- TGI (COLO 205 colon): > 100 µM
- TGI (EKVX NSCLC): > 100 µM
- TGI (HCT-116 colon): > 100 µM
- TGI (HCT-15 colon): > 100 µM
- TGI (HL-60(TB) leukemia): > 100 µM
- TGI (HOP-62 NSCLC): > 100 µM
- TGI (HOP-92 NSCLC): > 100 µM
- TGI (HS 578T breast): > 100 µM
- TGI (HT29 colon): > 100 µM
- TGI (IGROV1 ovarian): > 100 µM
- TGI (K-562 leukemia): > 100 µM
- TGI (KM12 colon): > 100 µM
- TGI (LOX IMVI melanoma): > 100 µM
- TGI (M14 melanoma): > 100 µM
- TGI (MALME-3M melanoma): > 100 µM
- TGI (MCF7 breast): > 100 µM
- TGI (MDA-MB-231 breast): > 100 µM
- TGI (MDA-MB-435): > 100 µM
- TGI (MDA-N): > 100 µM
- TGI (MOLT-4 leukemia): > 100 µM
- TGI (NCI-H226 lung): > 100 µM
- TGI (NCI-H23 lung): > 100 µM
- TGI (NCI-H460 lung): > 100 µM
- TGI (NCI-H522 lung): > 100 µM
- TGI (NCI/ADR-RES ovarian): > 100 µM
- TGI (OVCAR-3 ovarian): > 100 µM
- TGI (OVCAR-4 ovarian): > 100 µM
- TGI (OVCAR-5 ovarian): > 100 µM
- TGI (OVCAR-8 ovarian): > 100 µM
- TGI (PC-3 prostate): > 100 µM
- TGI (RPMI-8226 leukemia): > 100 µM
- TGI (RXF 393 renal): > 100 µM
- TGI (SF-268 CNS): > 100 µM
- TGI (SF-295 CNS): > 100 µM
- TGI (SF-539 CNS): > 100 µM
- TGI (SK-MEL-2 melanoma): > 100 µM
- TGI (SK-MEL-28 melanoma): > 100 µM
- TGI (SK-MEL-5 melanoma): > 100 µM
- TGI (SK-OV-3 ovarian): > 100 µM
- TGI (SNB-19 CNS): > 100 µM
- TGI (SNB-75 CNS): > 100 µM
- TGI (SR leukemia): > 100 µM
- TGI (SW-620 colon): > 100 µM
- TGI (T-47D breast): > 100 µM
- TGI (TK-10 renal): > 100 µM
- TGI (U251 CNS): > 100 µM
- TGI (UACC-257 melanoma): > 100 µM
- TGI (UACC-62 melanoma): > 100 µM
- TGI (UO-31 renal): > 100 µM

Compound: Cc1cc(S(=O)(=O)N/C(=C(\C#N)C(=O)c2ccccc2)[n+]2ccc(N(C)C)cc2)c([S-])cc1Cl
- TGI (786-0 renal): > 100 µM
- TGI (A498 renal): > 100 µM
- TGI (A549 NSCLC): > 100 µM
- TGI (ACHN renal): > 100 µM
- TGI (BT-549 breast): > 100 µM
- TGI (CAKI-1 renal): > 100 µM
- TGI (CCRF-CEM leukemia): > 100 µM
- TGI (COLO 205 colon): > 100 µM
- TGI (EKVX NSCLC): > 100 µM
- TGI (HCT-116 colon): > 100 µM
- TGI (HCT-15 colon): > 100 µM
- TGI (HL-60(TB) leukemia): > 100 µM
- TGI (HOP-62 NSCLC): > 100 µM
- TGI (HOP-92 NSCLC): 0.994 µM
- TGI (HS 578T breast): > 100 µM
- TGI (HT29 colon): > 100 µM
- TGI (IGROV1 ovarian): > 100 µM
- TGI (K-562 leukemia): > 100 µM
- TGI (KM12 colon): > 100 µM
- TGI (M14 melanoma): > 100 µM
- TGI (MALME-3M melanoma): 94 µM
- TGI (MCF7 breast): > 100 µM
- TGI (MDA-MB-231 breast): > 100 µM
- TGI (MDA-MB-435): > 100 µM
- TGI (MDA-N): > 100 µM
- TGI (MOLT-4 leukemia): > 100 µM
- TGI (NCI-H226 lung): > 100 µM
- TGI (NCI-H23 lung): > 100 µM
- TGI (NCI-H460 lung): > 100 µM
- TGI (NCI-H522 lung): > 100 µM
- TGI (NCI/ADR-RES ovarian): > 100 µM
- TGI (OVCAR-3 ovarian): > 100 µM
- TGI (OVCAR-4 ovarian): > 100 µM
- TGI (OVCAR-5 ovarian): > 100 µM
- TGI (OVCAR-8 ovarian): > 100 µM
- TGI (PC-3 prostate): > 100 µM
- TGI (RPMI-8226 leukemia): > 100 µM
- TGI (RXF 393 renal): > 100 µM
- TGI (SF-268 CNS): > 100 µM
- TGI (SF-295 CNS): > 100 µM
- TGI (SF-539 CNS): > 100 µM
- TGI (SK-MEL-2 melanoma): > 100 µM
- TGI (SK-MEL-28 melanoma): > 100 µM
- TGI (SK-MEL-5 melanoma): > 100 µM
- TGI (SK-OV-3 ovarian): > 100 µM
- TGI (SN12C renal): > 100 µM
- TGI (SNB-19 CNS): > 100 µM
- TGI (SR leukemia): > 100 µM
- TGI (T-47D breast): > 100 µM
- TGI (TK-10 renal): > 100 µM
- TGI (U251 CNS): > 100 µM
- TGI (UACC-257 melanoma): > 100 µM
- TGI (UACC-62 melanoma): > 100 µM
- TGI (UO-31 renal): > 100 µM
